Measurements from BigSolDB 2.1.

Details: in water

| solubility (mole fraction) (293.15 K) | solubility (mole fraction) (298.15 K) | solubility (mole fraction) (303.15 K) | solubility (mole fraction) (308.15 K) | solubility (mole fraction) (313.15 K) | solubility (mole fraction) (318.15 K) | solubility (mole fraction) (323.15 K) | SMILES |
| --- | --- | --- | --- | --- | --- | --- | --- |
| 3.48e-05 | 3.77e-05 | 4.33e-05 | 4.9e-05 | 5.63e-05 | 6.54e-05 | 7.57e-05 | CCn1cc(C(=O)O)c(=O)c2cc(F)c(N3CCNC(C)C3)c(F)c21 (stereo unspecified) |
| 1.85e-05 | 2.04e-05 | 2.3e-05 | 2.63e-05 | 3.02e-05 | 3.4e-05 | 3.83e-05 | CCn1cc(C(=O)O)c(=O)c2cnc(N3CCNCC3)nc21 |
| 2.02e-05 | 2.27e-05 | 2.54e-05 | 2.92e-05 | 3.38e-05 | 3.93e-05 | 4.69e-05 | CCn1cc(C(=O)O)c(=O)c2cc(F)c(N3CCNCC3)cc21 |
